± gives the standard deviation of the averaged measurements.
Legend:
Assay in all cases: level (log10 ratio to DMSO vehicle control); higher = higher biomarker level / cell amount than vehicle control
[1] = compound: C=CC(=O)OCC(F)(F)C(F)(F)C(F)(F)C(F)(F)COC(=O)C=C [1H,1H,6H,6H-Perfluorohexane-1,6-diol diacrylate]; details: 6700 nM; in DMSO
Method: (§1)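 BioMAP Diversity Plus panel of 12 human primary cell co-culture systems (3C, 4H, LPS, SAg, BT, BF4T, BE3C, CASM3C, HDF3CGF, KF3CT, MyoF, Mphg). Compounds were added 1 h before stimulation and left for 24 h (MyoF 48 h; BT 72 h for soluble read-outs or 6 d for IgG). Biomarkers were read by ELISA, cytotoxicity by SRB, PBMC viability and proliferation by Alamar Blue. Each well value was divided by the mean of 8 DMSO control wells on the same plate and log10 transformed; duplicate blinded samples were tested at 4 concentrations.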

[2] = compound: C=C(C)C(=O)OCC(F)(F)C(F)(F)C(F)(F)F [2,2,3,3,4,4,4-Heptafluorobutyl methacrylate]; details: in DMSO
Method: as §1

[3] = compound: Cc1ccc(S(=O)(=O)OCC(F)(F)C(F)(F)C(F)(F)C(F)(F)C(F)(F)C(F)F)cc1 [1H,1H,7H-Perfluoroheptyl 4-methylbenzenesulfonate]; details: in DMSO
Method: as §1

Test System | level (log10) [1] | level (log10) ([2]; 6700 nM) | level (log10) ([2]; 20000 nM) | level (log10) ([2]; 60000 nM) | level (log10) ([3]; 6700 nM) | level (log10) ([3]; 20000 nM) | level (log10) ([3]; 60000 nM)
BE3C:IL-1alpha | -0.0735 ± 0.03 | -0.003 ± 0.017 | -0.019 ± 0.0057 | -0.007 ± 0.011 | 0.01 ± 0.0085 | -0.003 ± 0.018 | 0.071 ± 0.061
3C:Proliferation | -0.307 ± 0.084 | -0.0315 ± 0.044 | -0.0325 ± 0.033 | -0.049 ± 0.02 | -0.02 ± 0.014 | -0.033 ± 0.014 | -0.12 ± 0.086
BF4T:CD106/VCAM-1 | -0.132 ± 0.016 | 0.009 ± 0.013 | -0.021 ± 0.011 | -0.0245 ± 0.0035 | 0.009 ± 0.042 | 0.024 ± 0.0014 | -0.0055 ± 0.04
SAg:Proliferation | -0.296 ± 0.063 | -0.042 ± 0.069 | -0.004 ± 0.03 | -0.0045 ± 0.033 | -0.0085 ± 0.07 | -0.011 ± 0.0085 | -0.0335 ± 0.086
BF4T:MMP-1 | 0.0365 ± 0.018 | 0.009 ± 0.018 | -0.001 ± 0.013 | 0.009 ± 0.0057 | 0.0105 ± 0.046 | -0.018 ± 0.038 | 0.013 ± 0.037
LPS:IL-1alpha | -0.0065 ± 0.015 | -0.04 ± 0.0057 | -0.0105 ± 0.011 | 0.042 ± 0.0014 | -0.018 ± 0.017 | -0.006 ± 0.0042 | -0.039 ± 0.0085
BT:sIL-17F | -0.816 ± 0.025 | -0.0825 ± 0.14 | 0.0525 ± 0.083 | 0.0455 ± 0.033 | 0.0475 ± 0.13 | -0.037 ± 0.051 | -0.105 ± 0.032
LPS:CCL2/MCP-1 | -0.0285 ± 0.019 | 0.0125 ± 0.015 | -0.002 ± 0.0028 | 0.018 ± 0.02 | -0.013 ± 0.0057 | -0.01 ± 0.0071 | -0.004 ± 0.013
BF4T:CCL26/Eotaxin-3 | -0.055 ± 0.025 | 0.032 ± 0.069 | 0.0385 ± 0.05 | 0.0235 ± 0.052 | -0.0095 ± 0.046 | -0.077 ± 0.068 | -0.095 ± 0.018
BF4T:CXCL8/IL-8 | -0.0265 ± 0.013 | 0.044 ± 0.047 | 0.0155 ± 0.073 | 0.037 ± 0.037 | -0.0195 ± 0.012 | -0.0615 ± 0.012 | -0.0515 ± 0.011
4H:CD62P/P-selectin | -0.104 ± 0.026 | -0.002 ± 0.052 | -0.008 ± 0.037 | 0.129 ± 0.021 | 0.052 ± 0.033 | 0.002 ± 0.035 | 0.149 ± 0.012
LPS:CD40 | -0.1475 ± 0.00071 | 0.0015 ± 0.037 | 0.024 ± 0.034 | 0.0525 ± 0.012 | -0.0185 ± 0.066 | 0.0215 ± 0.054 | 0.129 ± 0.061
BT:sIL-17A | -0.863 ± 0.015 | -0.0665 ± 0.11 | 0.042 ± 0.065 | 0.0245 ± 0.086 | 0.093 ± 0.0099 | 0.037 ± 0.045 | -0.117 ± 0.12
4H:CCL2/MCP-1 | -0.0235 ± 0.019 | 0.0125 ± 0.012 | -0.007 ± 0.0099 | 0.0335 ± 0.047 | -0.0455 ± 0.023 | -0.098 ± 0.0071 | -0.178 ± 0.05
3C:CXCL9/MIG | 0.002 ± 0.0042 | -0.0035 ± 0.005 | 0.002 | 0.0095 ± 0.021 | 0.005 ± 0.011 | -0.008 ± 0.0014 | -0.01 ± 0.0042
BE3C:CXCL9/MIG | -0.0075 ± 0.011 | 0.003 ± 0.0085 | 0.0025 ± 0.0035 | 0.01 ± 0.0071 | 0.005 ± 0.016 | -0.001 ± 0.0028 | 0.0005 ± 0.021
BF4T:SRB | -0.01 ± 0.0014 | -0.003 ± 0.0042 | -0.011 ± 0.0071 | 0.0315 ± 0.039 | -0.003 ± 0.0042 | -0.008 ± 0.0028 | -0.015 ± 0.0099

Test System | level (log10) [1] | level (log10) ([2]; 6700 nM) | level (log10) ([2]; 20000 nM) | level (log10) ([2]; 60000 nM) | level (log10) ([3]; 6700 nM) | level (log10) ([3]; 20000 nM) | level (log10) ([3]; 60000 nM)
3C:HLA-DR | -0.025 ± 0.011 | -0.01 ± 0.013 | -0.0055 ± 0.0078 | 0.001 ± 0.0042 | 0.0215 ± 0.016 | 0.0165 ± 0.0021 | 0.0085 ± 0.022
LPS:CD141/Thrombomodulin | -0.0375 ± 0.013 | 0.001 ± 0.05 | -0.0015 ± 0.005 | -0.0185 ± 0.019 | -0.0115 ± 0.016 | -0.011 ± 0.0085 | -0.007 ± 0.023
BT:Secreted IgG | -0.489 ± 0.25 | 0.0145 ± 0.036 | 0.029 ± 0.018 | 0.024 ± 0.03 | 0.006 ± 0.018 | -0.019 ± 0.035 | -0.22 ± 0.18
LPS:CXCL8/IL-8 | -0.0205 ± 0.028 | -0.001 ± 0.016 | 0.0055 ± 0.012 | 0.0145 ± 0.0092 | 0.0265 ± 0.015 | 0.008 ± 0.014 | 0.0195 ± 0.0021
SAg:SRB | -0.0115 ± 0.005 | -0.0005 ± 0.0078 | 0.0035 ± 0.0035 | 0.002 ± 0.0099 | 0.002 ± 0.0057 | -0.017 ± 0.011 | -0.109 ± 0.02
BE3C:CXCL10/IP-10 | -0.0095 ± 0.0064 | 0.0365 ± 0.029 | 0.0225 ± 0.04 | 0.0135 ± 0.035 | -0.0095 ± 0.0092 | -0.033 ± 0.016 | -0.015 ± 0.0014
BF4T:IL-1alpha | -0.0155 ± 0.025 | -0.005 ± 0.014 | -0.009 ± 0.0014 | 0.002 ± 0.025 | -0.008 ± 0.0085 | 0.022 ± 0.018 | 0.04 ± 0.034
4H:SRB | -0.0075 ± 0.0035 | -0.0025 ± 0.005 | -0.005 ± 0.0042 | -0.001 ± 0.0014 | 0.0005 ± 0.026 | -0.002 ± 0.011 | -0.0605 ± 0.0078
BF4T:PAI-I | -0.015 ± 0.0014 | -0.0035 ± 0.00071 | 0.0015 ± 0.0064 | 0.007 | -0.0075 ± 0.025 | -0.0295 ± 0.011 | -0.0315 ± 0.0035
LPS:CD142/Tissue Factor | -0.0415 ± 0.00071 | -0.0225 ± 0.026 | -0.013 ± 0.025 | 0.02 ± 0.0057 | -0.0355 ± 0.11 | -0.022 ± 0.065 | 0.161 ± 0.039
3C:SRB | -0.0015 ± 0.028 | -0.0125 ± 0.0021 | -0.001 ± 0.0057 | 0.0035 ± 0.00071 | 0.006 ± 0.0071 | -0.016 ± 0.013 | -0.125 ± 0.0042
BT:B cell Proliferation | -0.188 ± 0.0057 | -0.0305 ± 0.076 | -0.02 ± 0.086 | -0.058 ± 0.011 | -0.0165 ± 0.012 | 0.011 ± 0.0028 | -0.034 ± 0.0057
LPS:CD69 | -0.052 ± 0.023 | -0.019 ± 0.013 | -0.024 ± 0.028 | -0.024 ± 0.011 | -0.026 ± 0.048 | -0.0665 ± 0.088 | -0.055
BE3C:CD87/uPAR | 0.014 ± 0.023 | -0.004 ± 0.0028 | 0.0075 ± 0.015 | 0.017 ± 0.027 | 0.026 ± 0.017 | -0.004 ± 0.0085 | 0.005 ± 0.033
BF4T:CD54/ICAM-1 | -0.0575 ± 0.0021 | -0.0025 ± 0.022 | -0.0085 ± 0.021 | -0.005 ± 0.023 | -0.0055 ± 0.018 | -0.01 ± 0.0028 | -0.021 ± 0.0085
SAg:CCL2/MCP-1 | -0.0875 ± 0.04 | 0.0075 ± 0.012 | -0.011 ± 0.0028 | 0.017 ± 0.011 | -0.024 ± 0.016 | -0.027 ± 0.011 | -0.021 ± 0.023
4H:CD106/VCAM-1 | -0.057 ± 0.0057 | 0.012 ± 0.04 | 0.019 ± 0.028 | 0.02 ± 0.025 | -0.0065 ± 0.0078 | -0.032 ± 0.013 | -0.0295 ± 0.011
